These results are taken from PMC4209162, “Specific aromatic foldamers potently inhibit spontaneous and seeded Aβ42 and Aβ43 fibril assembly” (Biochemical Journal, 2014).

One experiment concerns the target T1, FUS (Homo sapiens, UniProt P35637).
T1 sequence (P35637 1-526): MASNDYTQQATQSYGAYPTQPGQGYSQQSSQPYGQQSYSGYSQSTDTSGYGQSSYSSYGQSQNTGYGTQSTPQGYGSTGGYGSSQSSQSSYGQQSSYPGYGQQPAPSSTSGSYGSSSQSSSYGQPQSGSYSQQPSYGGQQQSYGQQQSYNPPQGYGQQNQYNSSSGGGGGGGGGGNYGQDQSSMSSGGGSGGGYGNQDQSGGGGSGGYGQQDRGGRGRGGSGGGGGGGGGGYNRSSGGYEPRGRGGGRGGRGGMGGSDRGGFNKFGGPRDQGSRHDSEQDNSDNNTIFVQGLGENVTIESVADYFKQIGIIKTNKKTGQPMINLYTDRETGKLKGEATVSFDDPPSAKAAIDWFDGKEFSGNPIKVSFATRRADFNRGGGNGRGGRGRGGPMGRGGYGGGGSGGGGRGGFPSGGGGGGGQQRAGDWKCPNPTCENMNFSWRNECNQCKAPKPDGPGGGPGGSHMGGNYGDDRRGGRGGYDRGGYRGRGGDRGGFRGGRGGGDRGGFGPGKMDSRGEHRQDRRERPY
Nature of the experiment: FUS aggregation (turbidity, absorbance at 395 nm). The class given is biochemical. Conditions: GST-FUS 5 μM, foldamer 20 μM, plus TEV protease, 25°C, 0–90 min. On the procedure:
GST–TEV–FUS was purified as described. Aggregation was initiated by addition of tobbaco etch virus (TEV) protease to GST–TEV–FUS (5 μM) plus or minus foldamer (20 μM) in assembly buffer (50 mM Tris/HCl pH 8, 0.2 M trehalose and 20 mM glutathione). Aggregation was for 0–90 min at 25°C without agitation in a 96-well plate and was assessed by turbidity (absorbance at 395 nm) using a Tecan Infinite M1000 plate reader. No aggregation occurred unless TEV protease was added to separate GST from FUS [58].

The subject of experiment [1] is SH-SY5Y human neuroblastoma cells. The experiment can be described thus: Toxicity of Aβ43 conformers to SH-SY5Y cells (MTT reduction, LDH release). Type of experiment: cell-based. Conditions: 24 h, MTT and LDH. On the procedure: (§1) SH-SY5Y human neuroblastoma cells were maintained in Dulbecco's modified Eagle's medium (DMEM) plus 10 mM Hepes, 10% FBS, 4 mM glutamine, penicillin (200 units/ml) and streptomycin (200 μg/ml) in 5% CO2 at 37°C. Cells were differentiated in serum-free DMEM with N2 supplement and 10 μM all-trans-retinoic acid before use. Cells were plated at (10000 cells/well) in 96-well plates and grown overnight. Medium was removed and Aβ conformers or controls were added and cells were incubated for 24 h at 37°C. Toxicity was assessed using an MTT kit (Tox-1; Sigma) or via lactate dehydrogenase (LDH) release using the CytoTox-ONE™ kit (Promega). Toxicity values were normalized to the buffer control without Aβ.
For orientation: Tetrazolium assays rely on reduction of a dye to a coloured formazan, in cell work by metabolically active cells.

The target in experiment [2] is T2, Aβ42 (Homo sapiens, UniProt P05067). The experiment can be described thus: Seeded Aβ42 fibrillization (ThT fluorescence, EM). The class given is biochemical.
The target in experiment [3] is T2, Aβ42. Nature of the experiment: Spontaneous Aβ42 fibrillization (ThT fluorescence, EM). Type of experiment: biochemical. Conditions: 25°C.
Experiment [4] addresses T3, Aβ43 (Homo sapiens, UniProt P05067). The experiment can be described thus: Spontaneous Aβ43 fibrillization (ThT fluorescence, EM). Type of experiment: biochemical. Conditions: Aβ43 5 μM.
Another experiment deals with Aβ43 oligomers (Homo sapiens, UniProt P05067). The experiment can be described thus: A11-reactive Aβ43 conformers (ELISA). Conditions: Aβ43 5 μM, foldamer 20 μM, 25°C. Type of experiment: biochemical.
In another experiment the target is Aβ42 fibrils (Homo sapiens, UniProt P05067). The experiment can be described thus: Disassembly of preformed Aβ42 fibrils. Type of experiment: biochemical. The settings on record: foldamer in 4-fold molar excess, 24 h (results not shown).
The target in the next experiment is Aβ42 oligomers (Homo sapiens, UniProt P05067). Nature of the experiment: A11-reactive Aβ42 conformers (ELISA). The class given is biochemical. Conditions: Aβ42 5 μM, foldamer 20 μM, 25°C. A general note: ELISA stands for enzyme-linked immunosorbent assay.
The subject of experiment [5] is SH-SY5Y human neuroblastoma cells. The experiment can be described thus: Toxicity of Aβ42 conformers to SH-SY5Y cells (MTT reduction, LDH release). Type of experiment: cell-based. The settings on record: 24 h, MTT and LDH. On the procedure:
as §1

Experiment [6] deals with T3, Aβ43. Nature of the experiment: Seeded Aβ43 fibrillization (ThT fluorescence, EM). The class given is biochemical.
[7] abbreviates: 4 h (endpoint of fibrillization).

“Also recorded” adds a separate entry of the source.

T3 sequence (P05067 672-714 limits assumed): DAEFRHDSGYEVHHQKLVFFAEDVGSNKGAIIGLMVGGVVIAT
T2 sequence (P05067 672-713 limits assumed): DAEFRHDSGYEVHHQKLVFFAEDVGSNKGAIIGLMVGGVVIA
Aβ43 oligomers, sequence (P05067 672-714 limits assumed): as the sequence (P05067 672-714 limits assumed) above
Aβ42 oligomers, sequence (P05067 672-713 limits assumed): as the sequence (P05067 672-713 limits assumed) above
Aβ42 fibrils, sequence (P05067 672-713 limits assumed): as above

On to Sal-(Lys-Sal)3-CONH2, for which the “Inhibition of FUS aggregation” value on FUS is recorded as “delayed FUS aggregation”. The “Effect on toxicity of Aβ43 conformers after 0.5 h of assembly” value in [1] (Aβ43 5 μM assembled with foldamer 20 μM for 0.5 h) is given as “neither Sal-(Lys-Sal)3-CONH2 nor Ac-Sal-(Lys-Sal)3-CONH2 affected the toxicity”. Further, in [1] (Aβ43 5 μM assembled with foldamer 20 μM for 4 h), the “Effect on toxicity of Aβ43 conformers after 4 h of assembly” value is “neither Sal-(Lys-Sal)3-CONH2 nor Ac-Sal-(Lys-Sal)3-CONH2 affected the toxicity”. Also, the “Extent of seeded Aβ42 fibrillization at 4-fold molar excess of foldamer” value on Aβ42 [2] (Aβ42 5 μM plus seed 0.1 μM monomer, foldamer 20 μM) is given as “very limited”. In addition, the “Inhibition of seeded Aβ42 fibrillization” value on Aβ42 [2] (Aβ42 5 μM plus seed 0.1 μM monomer, foldamer 5, 10 or 20 μM, 0–2 h, 25°C) is “only inhibited seeded Aβ42 fibrillization when present at a 4-fold molar excess over Aβ42”. The “Inhibition of seeded Aβ42 fibrillization, different assembly conditions” value at Aβ42 [2] (Aβ prepared without DMSO, PBE pH 8, Aβ42 5 μM plus seed 0.1 μM monomer, foldamer 20 μM, 16 h) is “inhibited”. On Aβ42 [3] (Aβ42 5 μM, foldamer 10 μM, 8 h, agitation, ThT fluorescence (EM 4 h)), the “Inhibition of spontaneous Aβ42 fibrillization” value is reported as “strong inhibitors; also recorded: potent inhibitors”. On Aβ42 [3] (Aβ prepared without DMSO, PBE pH 8, Aβ42 5 μM, foldamer 20 μM, 16 h, ThT), the “Inhibition of spontaneous Aβ42 fibrillization, different assembly conditions” value was “inhibited”. Further, the “ThT fluorescence of Aβ43 fibrils formed in presence of foldamer (spontaneous)” value on Aβ43 [4] (compared with Aβ43 alone) is “higher ThT fluorescence”. Besides, the “Inhibition of spontaneous Aβ43 fibrillization” value on Aβ43 [4] (foldamer 5, 10 or 20 μM, 0–8 h, 25°C, ThT, EM 10 μM 4 h) is “did not block spontaneous Aβ43 fibrillization”. The “Effect on A11-reactive Aβ43 conformers after 0.5 h” value on Aβ43 oligomers (0.5 h (end of lag phase)) is given as “had no effect”. Also, on Aβ43 oligomers (setting [7]), the “Effect on A11-reactive Aβ43 conformers after 4 h” value was “declined more extensively”. Moreover, the “Disassembly of Aβ42 fibrils” value on Aβ42 fibrils is given as “did not disassemble Aβ42 fibrils”. The “Effect on A11-reactive Aβ42 conformers after 0.5 h” value at Aβ42 oligomers (0.5 h (end of lag phase)) was “had no effect”. In addition, the “Effect on A11-reactive Aβ42 conformers after 4 h” value at Aβ42 oligomers (setting [7]) is reported as “remained at higher levels”. Besides, in experiment [5] (Aβ42 5 μM assembled with foldamer 20 μM for 0.5 h), the “Effect on toxicity of Aβ42 conformers after 0.5 h of assembly” value was “had no effect”. Besides, the “Effect on toxicity of Aβ42 conformers after 4 h of assembly” value in experiment [5] (Aβ42 5 μM assembled with foldamer 20 μM for 4 h) is recorded as “enhanced”. For the same substance, the “Inhibition of seeded Aβ43 fibrillization” value at Aβ43 [6] (Aβ43 5 μM plus seed 0.1 μM monomer, foldamer 5, 10 or 20 μM, 0–2 h, 25°C, ThT, EM) is on record as “did not inhibit seeded Aβ43 fibrillization”. Further, the “ThT fluorescence of Aβ43 fibrillar forms in presence of foldamer (seeded)” value at Aβ43 [6] (Aβ43 5 μM plus seed, compared with Aβ43 alone) was “higher ThT fluorescence signal”.
